Source: ChEMBL document CHEMBL1201862, “PubChem BioAssay data set” (2004)
The source made the active and inactive calls.

What was measured:
[1] = target: Cytochrome P450 2C19 (Homo sapiens, UniProt P33261); test: Cytochrome panel assay with activity outcomes. Panel member name: p450-cyp2c19 Compounds with AC50 equal or less than 10 uM are considered active; type: functional; conditions: read-out: AC50
[2] = tested on: HT-1080; test: cytotoxicity in HT1080 fibrosarcoma cells, cell-based, fluorescence readout (AID 620); type: functional; conditions: Homo sapiens
[3] = target: T1, Luciferin 4-monooxygenase (Photinus pyralis, UniProt P08659); test: Counter Screen for Luciferase-based Assay Positives. [Related pubchem assays: 620, 618, 411 ]
T1 sequence (P08659 whole entry): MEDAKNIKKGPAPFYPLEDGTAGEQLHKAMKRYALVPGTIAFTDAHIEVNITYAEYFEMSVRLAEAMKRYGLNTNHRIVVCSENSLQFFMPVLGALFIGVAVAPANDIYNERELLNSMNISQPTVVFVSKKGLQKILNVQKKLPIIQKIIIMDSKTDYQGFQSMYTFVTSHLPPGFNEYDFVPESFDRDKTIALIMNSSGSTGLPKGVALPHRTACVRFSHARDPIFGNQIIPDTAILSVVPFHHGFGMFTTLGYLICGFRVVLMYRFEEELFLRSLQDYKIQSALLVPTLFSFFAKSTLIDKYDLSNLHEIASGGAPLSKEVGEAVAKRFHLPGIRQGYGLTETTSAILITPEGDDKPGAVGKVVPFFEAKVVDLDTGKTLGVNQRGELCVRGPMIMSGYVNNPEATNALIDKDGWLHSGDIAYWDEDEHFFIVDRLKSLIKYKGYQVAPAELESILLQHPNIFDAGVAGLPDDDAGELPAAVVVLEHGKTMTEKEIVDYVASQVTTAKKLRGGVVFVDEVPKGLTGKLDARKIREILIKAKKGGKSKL

[4] = target: T2, Heat shock factor protein 1 (Mus musculus, UniProt P38532); test: inhibition of MG132-induced HSE-luciferase signal, confirmation, cell-based, NIH3T3, luminescence, dose retest (AID 2382); type: functional;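 note: NIH3T3 fibroblasts with HSF1-driven luciferase reporter stressed by proteasome inhibitor MG132; luminescence from HSF1-driven luciferase expression after 8 hours of MG132 stress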
T2 sequence (P38532 whole entry): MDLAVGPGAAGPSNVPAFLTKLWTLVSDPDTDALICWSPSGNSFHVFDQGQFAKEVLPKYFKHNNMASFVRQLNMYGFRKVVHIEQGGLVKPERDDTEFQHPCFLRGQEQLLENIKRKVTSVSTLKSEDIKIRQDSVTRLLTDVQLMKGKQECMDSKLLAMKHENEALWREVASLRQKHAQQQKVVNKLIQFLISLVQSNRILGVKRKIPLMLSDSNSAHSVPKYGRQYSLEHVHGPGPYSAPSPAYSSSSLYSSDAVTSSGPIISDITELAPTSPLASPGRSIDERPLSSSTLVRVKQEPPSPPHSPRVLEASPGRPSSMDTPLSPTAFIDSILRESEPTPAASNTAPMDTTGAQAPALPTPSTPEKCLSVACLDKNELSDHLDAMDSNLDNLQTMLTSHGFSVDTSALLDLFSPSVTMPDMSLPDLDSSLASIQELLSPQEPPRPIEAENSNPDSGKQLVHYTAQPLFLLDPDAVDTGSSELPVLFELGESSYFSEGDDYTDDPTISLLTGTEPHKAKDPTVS

[5] = A cytotoxicity screen of small molecule inhibitors of the PhoP region in Salmonella typhi identified in the primary screen. [Related pubchem assays: 1850, 1864, 1985 ]; type: functional
[6] = target: Beta-galactosidase (Escherichia coli, UniProt Q8VNN2); test: beta-galactosidase enzyme inhibitors and activators, dose response, artefact control for CCR6 antagonist project, biochemical, E. coli enzyme, set 3 (AID 504712); type: functional
Chain of Beta-galactosidase (Q8VNN2 whole entry): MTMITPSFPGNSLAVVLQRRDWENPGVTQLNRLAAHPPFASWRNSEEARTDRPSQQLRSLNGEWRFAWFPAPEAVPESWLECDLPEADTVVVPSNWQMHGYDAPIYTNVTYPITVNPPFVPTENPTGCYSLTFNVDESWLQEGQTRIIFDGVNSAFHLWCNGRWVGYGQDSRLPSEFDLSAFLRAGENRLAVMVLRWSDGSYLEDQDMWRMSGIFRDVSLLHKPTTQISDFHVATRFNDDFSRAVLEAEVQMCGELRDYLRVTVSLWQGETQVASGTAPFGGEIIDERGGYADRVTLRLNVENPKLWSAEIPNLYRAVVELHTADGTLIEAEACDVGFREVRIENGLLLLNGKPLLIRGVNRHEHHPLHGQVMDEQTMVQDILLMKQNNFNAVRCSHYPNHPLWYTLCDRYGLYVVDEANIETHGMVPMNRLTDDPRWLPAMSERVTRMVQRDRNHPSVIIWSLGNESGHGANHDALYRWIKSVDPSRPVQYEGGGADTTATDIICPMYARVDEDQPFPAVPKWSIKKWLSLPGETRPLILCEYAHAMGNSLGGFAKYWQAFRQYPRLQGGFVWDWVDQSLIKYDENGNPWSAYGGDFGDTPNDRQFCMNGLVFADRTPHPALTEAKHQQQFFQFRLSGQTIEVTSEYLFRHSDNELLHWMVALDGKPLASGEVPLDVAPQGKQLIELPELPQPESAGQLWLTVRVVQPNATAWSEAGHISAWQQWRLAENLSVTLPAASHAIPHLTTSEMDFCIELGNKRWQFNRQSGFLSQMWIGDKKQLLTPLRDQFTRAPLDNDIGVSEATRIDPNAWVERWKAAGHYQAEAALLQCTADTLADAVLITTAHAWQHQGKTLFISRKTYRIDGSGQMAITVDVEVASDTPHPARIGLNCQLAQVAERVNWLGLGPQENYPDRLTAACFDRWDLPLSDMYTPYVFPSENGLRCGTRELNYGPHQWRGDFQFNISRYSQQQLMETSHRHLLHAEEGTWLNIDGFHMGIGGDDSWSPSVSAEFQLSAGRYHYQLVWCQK

[7] = Vero E6 cell cytotoxicity, dose response, cytotoxicity control for non-replicating M. tuberculosis project, secondary assay (AID 492998); type: functional, VeroE6; conditions: Vero C1008
[8] = THP-1 cell cytotoxicity, dose response, cytotoxicity control for non-replicating M. tuberculosis project (AID 489025); type: functional
[9] = microbe, parasite or virus in culture; type: functional; conditions: Mycobacterium tuberculosis
[10] = inhibitors of intracellular T. cruzi replication, confirmation, NIH3T3 host cells, beta-gal luminescence (AID 2044); type: functional, cell-based;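 note: intracellular parasites grown in NIH/3T3 mouse fibroblasts as host cells; luminescent beta-galactosidase reporter signal from transgenic T. cruzi replicating inside host cells; inhibitors lower the luminescence signal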
[11] = cells; type: functional
[12] = cytotoxicity toward NIH3T3 fibroblasts, dose response, counter-screen, cell-based, ATP luminescence, mouse fibroblasts (AID 2010); type: functional;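 note: cells exposed to compound for about 90 hours before reading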
[13] = HepG2 cell cytotoxicity, dose response, cytotoxicity control for non-replicating M. tuberculosis project (AID 489018); type: functional; conditions: Mycobacterium tuberculosis
[14] = HIV-1 Env-mediated cell fusion inhibitors, dose response, CCR5-tropic Env (AID 2279); type: functional
[15] = Luminescence Cell-Based Dose Confirmation HTS to Identify Inhibitors of Platelet Dense Granule Release. [Related pubchem assays: 1663 (Primary HTS), 1678 (Summary of Project)]; type: functional
[16] = target: T1, Luciferin 4-monooxygenase; test: firefly luciferase enzyme inhibitors, dose response, biochemical, luminescence (AID 1891)
[17] = target: T3, Aminopeptidase N (Plasmodium falciparum FcB1/Columbia, UniProt O96935); test: P. falciparum M1AAP inhibitors, biochemical, fluorogenic H-Leu-NHMec substrate, 1536-well (AID 1445); design: species or system Plasmodium falciparum 3D7, 3D7
T3 sequence (O96935 whole entry): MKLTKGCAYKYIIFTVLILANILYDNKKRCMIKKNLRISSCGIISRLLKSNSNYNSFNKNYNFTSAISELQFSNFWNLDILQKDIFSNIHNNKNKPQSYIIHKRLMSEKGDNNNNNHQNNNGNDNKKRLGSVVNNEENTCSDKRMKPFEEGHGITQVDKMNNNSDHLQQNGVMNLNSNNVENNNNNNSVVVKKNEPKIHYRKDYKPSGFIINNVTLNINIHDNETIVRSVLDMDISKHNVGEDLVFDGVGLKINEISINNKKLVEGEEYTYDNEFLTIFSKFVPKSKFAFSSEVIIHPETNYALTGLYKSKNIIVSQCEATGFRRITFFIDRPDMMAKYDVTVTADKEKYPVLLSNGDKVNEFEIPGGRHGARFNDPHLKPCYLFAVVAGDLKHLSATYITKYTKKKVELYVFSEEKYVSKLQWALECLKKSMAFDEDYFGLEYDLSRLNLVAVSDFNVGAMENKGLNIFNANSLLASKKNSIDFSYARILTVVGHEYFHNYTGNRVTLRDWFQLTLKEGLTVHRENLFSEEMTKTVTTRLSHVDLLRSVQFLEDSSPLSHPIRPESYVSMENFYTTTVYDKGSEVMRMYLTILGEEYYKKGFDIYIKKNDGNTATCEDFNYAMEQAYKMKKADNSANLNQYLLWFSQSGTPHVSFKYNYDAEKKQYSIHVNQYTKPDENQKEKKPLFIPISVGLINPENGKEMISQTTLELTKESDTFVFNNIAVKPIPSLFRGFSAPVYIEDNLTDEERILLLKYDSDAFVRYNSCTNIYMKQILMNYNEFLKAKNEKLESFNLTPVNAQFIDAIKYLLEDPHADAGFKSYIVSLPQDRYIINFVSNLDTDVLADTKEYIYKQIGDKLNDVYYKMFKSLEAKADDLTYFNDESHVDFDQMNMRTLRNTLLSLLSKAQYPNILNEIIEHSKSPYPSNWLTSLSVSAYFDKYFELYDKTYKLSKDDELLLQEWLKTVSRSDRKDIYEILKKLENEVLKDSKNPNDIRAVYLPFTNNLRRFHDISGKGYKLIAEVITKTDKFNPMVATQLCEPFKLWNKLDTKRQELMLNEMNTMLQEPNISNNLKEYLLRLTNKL

[18] = target: T4, Rac GTPase-activating protein 1 (Homo sapiens, UniProt Q9H0H5); test: MgcRacGAP GTPase-activating activity inhibitors, confirmation, biochemical, ADP Hunter fluorescence, primary and confirmatory (AID 624330); type: functional
T4 sequence (Q9H0H5 whole entry): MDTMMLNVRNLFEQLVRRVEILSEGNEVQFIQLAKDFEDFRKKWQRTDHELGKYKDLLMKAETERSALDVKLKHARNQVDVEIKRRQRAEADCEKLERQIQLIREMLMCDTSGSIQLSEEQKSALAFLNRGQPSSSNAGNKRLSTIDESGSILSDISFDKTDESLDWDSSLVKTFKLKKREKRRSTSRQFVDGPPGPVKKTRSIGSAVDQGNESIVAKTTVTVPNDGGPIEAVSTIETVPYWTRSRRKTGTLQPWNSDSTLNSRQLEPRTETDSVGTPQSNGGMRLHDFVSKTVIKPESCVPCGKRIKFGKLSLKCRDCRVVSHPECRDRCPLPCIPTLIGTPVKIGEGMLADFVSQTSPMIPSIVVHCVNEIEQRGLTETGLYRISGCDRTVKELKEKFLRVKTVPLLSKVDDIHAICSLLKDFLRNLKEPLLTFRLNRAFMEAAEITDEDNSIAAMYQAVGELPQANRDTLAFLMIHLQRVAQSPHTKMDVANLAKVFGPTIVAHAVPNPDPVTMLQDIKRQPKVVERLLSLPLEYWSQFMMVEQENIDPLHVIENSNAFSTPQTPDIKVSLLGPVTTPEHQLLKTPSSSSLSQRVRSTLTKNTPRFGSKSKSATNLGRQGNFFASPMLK

[19] = target: T5, Replicative DNA helicase DnaB (Mycobacterium tuberculosis, UniProt P9WMR3); test: DnaB intein splicing inhibitors, dose response, biochemical, cell-free fluorescence (AID 449749); type: functional
T5 sequence (P9WMR3 whole entry): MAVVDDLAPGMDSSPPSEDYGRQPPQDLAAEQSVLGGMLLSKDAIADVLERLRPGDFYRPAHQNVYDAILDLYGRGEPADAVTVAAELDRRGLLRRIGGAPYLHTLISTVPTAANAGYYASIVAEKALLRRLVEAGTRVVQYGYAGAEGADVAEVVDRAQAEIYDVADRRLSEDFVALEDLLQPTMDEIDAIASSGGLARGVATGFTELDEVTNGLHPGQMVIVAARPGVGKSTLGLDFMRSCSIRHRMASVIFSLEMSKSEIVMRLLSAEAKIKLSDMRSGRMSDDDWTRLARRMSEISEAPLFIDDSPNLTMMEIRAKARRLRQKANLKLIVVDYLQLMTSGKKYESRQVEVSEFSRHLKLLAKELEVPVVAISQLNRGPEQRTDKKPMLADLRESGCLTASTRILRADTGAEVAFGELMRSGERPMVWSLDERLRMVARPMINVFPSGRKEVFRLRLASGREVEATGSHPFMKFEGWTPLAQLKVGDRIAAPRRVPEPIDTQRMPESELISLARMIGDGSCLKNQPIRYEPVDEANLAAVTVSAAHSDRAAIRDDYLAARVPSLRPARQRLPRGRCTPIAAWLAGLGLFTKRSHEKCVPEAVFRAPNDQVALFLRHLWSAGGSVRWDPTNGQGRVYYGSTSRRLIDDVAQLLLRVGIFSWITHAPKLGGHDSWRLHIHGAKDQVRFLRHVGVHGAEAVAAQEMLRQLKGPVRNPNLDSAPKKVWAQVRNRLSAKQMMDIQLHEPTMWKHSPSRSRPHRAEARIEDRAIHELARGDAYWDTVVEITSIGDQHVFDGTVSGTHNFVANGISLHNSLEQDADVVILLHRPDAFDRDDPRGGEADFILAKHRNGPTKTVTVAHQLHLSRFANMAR

[20] = cytotoxicity in KRAS-transformed pancreatic duct cells, primary screen, cell-based, fluorescence, HTS (AID 431); type: functional; conditions: Homo sapiens;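 note: cell line used: HPDE-C7K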
[21] = cytotoxicity in HPDE-C7 cells, cell-based, fluorescence, HTS (AID 430); type: functional; conditions: Homo sapiens
[22] = target: T2, Heat shock factor protein 1; test: HSF1 potentiators in luciferase reporter cells, confirmation, cell-based, NIH3T3, luminescence, dose retest (AID 435004); type: functional;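 note: stress induced by proteasome inhibitor MG132 added 30 min after compound; luciferase reporter driven by HSF1 response element in NIH3T3 cells; actives raise luminescence as potentiators of the MG132 stress response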
[23] = target: T6, Protein RecA (Mycobacterium tuberculosis, UniProt P9WHJ3); test: Fluorescence Cell-Free Homogeneous Dose Retest to Identify Inhibitors of RecA-Intein Splicing Activity. [Related pubchem assays (depositor defined):AID2097, AID2223, AID489010, AID492950]; type: functional
T6 sequence (P9WHJ3 whole entry): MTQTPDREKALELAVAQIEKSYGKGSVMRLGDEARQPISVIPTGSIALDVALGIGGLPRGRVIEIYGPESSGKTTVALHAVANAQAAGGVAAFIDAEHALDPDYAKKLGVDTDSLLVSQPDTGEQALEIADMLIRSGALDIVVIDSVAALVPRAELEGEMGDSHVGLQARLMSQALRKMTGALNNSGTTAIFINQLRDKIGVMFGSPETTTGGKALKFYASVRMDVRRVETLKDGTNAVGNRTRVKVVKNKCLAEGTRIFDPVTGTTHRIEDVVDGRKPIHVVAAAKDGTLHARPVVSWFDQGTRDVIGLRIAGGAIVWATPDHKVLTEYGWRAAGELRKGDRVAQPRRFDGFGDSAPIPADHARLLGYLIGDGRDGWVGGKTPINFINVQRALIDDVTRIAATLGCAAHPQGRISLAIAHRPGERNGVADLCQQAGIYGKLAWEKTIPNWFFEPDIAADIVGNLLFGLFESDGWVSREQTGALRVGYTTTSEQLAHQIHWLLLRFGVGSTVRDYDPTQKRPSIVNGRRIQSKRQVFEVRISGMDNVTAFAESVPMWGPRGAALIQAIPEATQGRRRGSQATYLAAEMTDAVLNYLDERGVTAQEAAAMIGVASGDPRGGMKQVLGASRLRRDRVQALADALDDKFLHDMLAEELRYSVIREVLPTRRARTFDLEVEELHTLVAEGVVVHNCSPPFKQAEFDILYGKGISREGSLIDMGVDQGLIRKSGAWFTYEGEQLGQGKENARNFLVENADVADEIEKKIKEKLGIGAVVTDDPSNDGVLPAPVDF

Chain of Cytochrome P450 2C19 (P33261 whole entry): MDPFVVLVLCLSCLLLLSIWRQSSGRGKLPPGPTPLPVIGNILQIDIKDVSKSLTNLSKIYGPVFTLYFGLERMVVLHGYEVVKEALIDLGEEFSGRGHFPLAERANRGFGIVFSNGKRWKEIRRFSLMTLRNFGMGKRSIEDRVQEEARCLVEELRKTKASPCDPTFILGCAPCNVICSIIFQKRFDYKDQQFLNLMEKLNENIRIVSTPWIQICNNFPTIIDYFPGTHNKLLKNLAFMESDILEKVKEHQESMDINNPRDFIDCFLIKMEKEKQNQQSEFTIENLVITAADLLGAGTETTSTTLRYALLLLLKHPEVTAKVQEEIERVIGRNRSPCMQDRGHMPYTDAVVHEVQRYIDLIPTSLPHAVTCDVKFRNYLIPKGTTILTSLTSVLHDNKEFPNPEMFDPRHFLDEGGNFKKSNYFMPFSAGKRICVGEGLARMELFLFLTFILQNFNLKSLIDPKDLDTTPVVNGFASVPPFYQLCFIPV

CCOC(=O)c1sc2nc3c(cc2c1N)COC(C(C)C)C3 (stereo unspecified)
AC50 [1]: 22.4 µM (inconclusive)
EC50 [2]: > 50 µM (not active)
EC50 [3]: 2.84 µM (active)
EC50 [4]: > 195 µM (not active)

COc1cccc(N2CCN(C(S)=NCc3ccco3)CC2)c1
EC50 [5]: > 50 µM (active)

CN1C(=O)C(c2c(O)[nH]c3ccccc23)=NC1=S
IC50 [6]: > 66.6 µM (inactive)

Cc1ccc(NC(=O)COc2ccccc2CNC(C)(C)CC(C)(C)C)cc1
CC50 [7]: 15.7 µM (active)
CC50 [8]: 18.9 µM (active)
CC50 [9]: 23.4 µM (active)
EC50 [10]: 1.36 µM (active)
IC50 [11]: 13.4 µM (active)
EC50 [12]: 8.6 µM (active)
CC50 [13]: 13.8 µM (active)

COc1ccc(-c2nn(-c3ccccc3)cc2/C=C2/SC(=S)N(CCCC(=O)O)C2=O)c(C)c1
IC50 [14]: 45 µM (active)

O=C(Nc1ccc2nc(S)sc2c1)Nc1ccccc1F
EC50 [5]: > 50 µM (active)

Nc1ccc(-c2nc3ccc(N)cc3o2)cc1
EC50 [15]: 25 µM (active)
EC50 [16]: 20.1 µM (active)
IC50 [17]: 26.2 µM (active)
EC50 [2]: > 50 µM (not active)
IC50 [18]: 47.8 µM (active)
EC50 [3]: 6.3 µM (active)

CC(C)(C)NC(=O)CSc1ncnc2c1nnn2Cc1ccccc1Cl
AC50 [19]: 6.8 µM (active)
EC50 [20]: 14.1 µM (active)
EC50 [21]: 11.8 µM (active)
EC50 [22]: 13.3 µM (active)
EC50 [23]: 8.37 µM (active)

Cc1occc1C(=O)N/N=C/c1cccs1
EC50 [5]: > 50 µM (active)

Cc1cc(C)c2ccc(/C=N/O)nc2c1O
CC50 [7]: 19.5 µM (active)
CC50 [8]: 22.9 µM (active)
IC50 [11]: 4.25 µM (active)
CC50 [13]: > 20 µM (active)
